In patent US11970583B2, “Therapeutic dendrimer” (Starpharma Pty Ltd., priority 2018, dated 2024):
Entries after “also recorded” stand apart in the source; their conditions may differ. Read-outs that look alike come from different tables or passages of the source.

Key:
[1] = cited from earlier work
[2] = test system: MDA-MB-231 tumour xenografts
Description: Cabazitaxel was prepared fresh for each dosing day.
Tumour volumes were determined twice weekly and were expressed as mean tumour volume (±SEM).
The data represent the mean percent weight change from baseline (Day 1) for each group; bars SEM.

[3] = 2.5 mg/kg
[4] = cited from earlier work; remark: listed apart in the source
[5] = Single-dose toxicokinetic study, intravenous bolus, free (unconjugated) cabazitaxel in plasma; type: in vivo, Sprague Dawley Crl:CD (SD) rats; conditions: for Cmax free (unconjugated) Cabazitaxel: i.v. bolus; for % JEVTANA ® brand cabazitaxel dose: relative to JEVTANA 2.5 mg/kg
Description: A single-dose toxicokinetic study of SPL-9048 and SPL-9005 was carried out by intravenous bolus injection in rats with a 21-day observation period. The control, 0.9% sodium chloride, was prepared and dispensed on the day of dosing. SPL-9048 and SPL-9005 were prepared at appropriate concentrations to meet dose level requirements. The dosing formulations were prepared and dispensed on each day of dosing and were used within 3 hours of preparation. The required amount of test article was weighed out and dissolved in a suitable volume of normal saline with gentle swirling and the pH was recorded. Cabazitaxel (JEVTANA® brand cabazitaxel) was prepared at appropriate concentration to meet dose level requirements. […] This stock solution was further diluted with normal saline to produce the final dosing concentration within 30 minutes.
The animals used were male and female Sprague Dawley Crl:CD (SD) rats. The animals were 10 to 14 weeks old and weighed between 327 and 565 g for males and 212 and 316 g for females at initiation of dosing. Animals were acclimated to their designated housing for at least 4 days before the first day of dosing. Animals were assigned to groups by a stratified randomization scheme designed to achieve similar group mean body weights. Males and females were randomised separately. Animals in poor health or at extremes of body weight ranges were not assigned to groups. PMI Nutrition International Certified Rodent Chow No. 5CR4 was provided ad libitum throughout the study except during designated procedures. The same diet in meal form was also provided, as needed. Municipal tap water, after treatment by reverse osmosis and ultraviolet irradiation, was freely available to each animal via an automatic watering system, except during designated procedures. Water bottles were also provided, as required. Animal were socially housed for psychological/environmental enrichment and were provided with items such as a chewing object, except when interrupted by study procedures/activities. Veterinary care was available throughout the course of the study.
The test and control articles were administered to the appropriate animals at the amounts indicated in the table below via a single intravenous (slow bolus) injection to the tail vein.
The dose volume for each animal was based on the most recent body weight measurement. The animals were temporarily restrained for dose administration and were not sedated. The doses were given using a syringe with attached needle. The first day of dosing for each group was designated as Day 1. The comparator dosing formulation (JEVTANA® brand Cabazitaxel) and test articles were maintained between 15 and 30° C. during dosing.
Toxicokinetic parameters were estimated using Phoenix pharmacokinetic software. A non-compartmental approach consistent with the intravenous route of administration was used for parameter estimation.

[6] = Toxicology study in rats at 1 mg/kg (neutropenia); type: in vivo; conditions: for neutropenia (FIG. 6), day 7 in particular: male and female rats
Description: References to amounts dosed in mg/kg for the dendrimeric compound are to the amounts of Cabazitaxel that may theoretically be released by the dendrimer.

[7] = test system: CAPAN-1 tumour xenografts; test: CAPAN-1 mouse xenograft pancreatic cancer model study; type: in vivo, Female NOD-SCID Interleukin-2 receptor gamma chain null mice; conditions: for Tumour Growth inhibition (%): Day 37, Gemcitabine 80 mg/kg i.p., ABRAXANE 40 mg/kg i.v., SPL9048 […] i.v.; for Tumour Growth inhibition (%) / anti-tumour efficacy (mean tumour volume, FIG. 7): dosing days 1, 8, 15; for anti-tumour efficacy (mean tumour volume, FIG. 7): study to day 107
Description: Gemcitabine and ABRAXANE® were obtained from the Peter MacCallum Cancer Centre pharmacy, and were dissolved in saline solution immediately prior to dosing.
Female NOD-SCID Interleukin-2 receptor gamma chain null mice (aged 9 weeks) were inoculated subcutaneously on the flank with 5×10^6 CAPAN-1 cells in PBS:Matrigel (1:1).
Tumour growth data was analysed in GraphPad Prism for ANOVA followed by Dunnett's post ad-hoc test.

DU145 tumour xenografts = test: DU145 mouse xenograft prostate cancer model study; type: in vivo, Male SCID mice
Description: Cabazitaxel was prepared fresh for each dosing day. […] Dosing solutions at 4.5 and 5.5 mg/mL were prepared from this working stock immediately prior to injection.
Male SCID mice (age 7-8) weeks were inoculated subcutaneously in the flank with 3×10^6 DU145 cells in PBS:Matrigel (1:1). Mice were weighed and tumours measured 2-3 times weekly using electronic callipers. […] Treatment groups were saline, Cabazitaxel (9 and 11 mg/kg), SPL-9048 (9 mg/kg) and SPL-9005 (25 mg/kg). […] The experiment was ended on Day 126, or earlier if an ethical endpoint was met. Survival curves were analysed using the Mantel Cox log rank test.
Tumour volumes were determined 2-3 times weekly and are expressed as mean tumour volume (±SEM).
Graphs are shown for each group until fewer than 6 animals remained in each group.

[8] = Stability in solution (precipitation); type: physicochemical; conditions: compared with SPL9049
[9] = test system: progressive metastatic disease; test: Phase 1 dose escalation study: treatment response and biomarkers; type: in vivo, human patients
Description: Biomarker, PK and other data were collected from patients enrolled in the study. Patients were dosed every 3 weeks, over 1 hour using an infusion pump. Patients all had progressive metastatic disease. The patient population was heavily pre-treated with a range of chemotherapeutic agents as described in the below table.

[10] = Separate tolerability study in female SCID mice; type: in vivo; conditions: 25 mg/kg Cabazitaxel equivalent

CO[C@H]1C(=O)[C@]2(C)[C@@H](OC)C[C@H]3OC[C@@]3(OC(C)=O)[C@H]2[C@H](OC(=O)c2ccccc2)[C@]2(O)C[C@H](OC(=O)[C@H](O)[C@@H](NC(=O)OC(C)(C)C)c3ccccc3)C(C)=C1C2(C)C [Cabazitaxel]
mean Cmax ([1]; 25 mg/m2, 1-hour IV, n=67): 226 ng/mL | Tmax (end of infusion) ([1]; 25 mg/m2, 1-hour IV): 60 min | mean AUC ([1]; 25 mg/m2, 1-hour IV): 991 ng·h/mL | patients with Grade 3 or 4 febrile neutropenia ([1]; in vivo): 8% | patients with neutropenia (all grades) ([1]; in vivo): 94% | tumours reaching ethical tumour volume endpoint by day 98 ([2]; 9 mg/kg i.v. days 1, 8, 15): 9 of 10 | test article related hematology changes ([3]; by Day 2 through Day 7, males and females): generally greater | patients with febrile neutropenia ([4]; 25-mg/m2 dose): 4% | patients with prolonged grade 4 neutropenia ([4]; 25-mg/m2 dose): 4% | AUC concentration ([4]; 25-mg/m^2 dose): 642±320 mcg/L per hour | Cmax ([4]; 25-mg/m^2 dose): 535 ± 305 ng/mL | dose eliminated within 2 weeks ([4]; in vivo): Approximately 80% | patients with diarrhea ([4]; in vivo): 56% | patients with fatigue ([4]; in vivo): 36% | patients with grade 1 hypersensitivity reactions (flushing, dizziness, chest tightness) ([4]; in vivo): 8% | patients with nausea ([4]; in vivo): 40% | patients with neurotoxicity ([4]; in vivo): 36% | patients with vomiting ([4]; in vivo): 16% | intermediate elimination phase, average t½ ([4]; triphasic model, plasma): 78 ± 36 min | prolonged terminal elimination phase, average t½ ([4]; triphasic model, plasma): 77.3 ± 45.5 h | rapid initial elimination phase, average terminal half-life t½ ([4]; triphasic model, plasma): 2.6 ± 1.4 min | Cabazitaxel measurability in plasma over time ([5]; 2.5 mg/kg): not measurable more than 24 hours after | AUC0-t free Cabazitaxel ([5]; 2.5 mg/kg drug eq., males): 679.99 ng·h/mL | Cmax free (unconjugated) Cabazitaxel ([5]; 2.5 mg/kg drug eq., males): 801.05 ng/mL | % JEVTANA ® brand cabazitaxel dose ([5]; 2.5 mg/kg drug eq., males): 100% | Cmax ([5]; Sprague Dawley Crl:CD (SD), rat, plasma, intravenous, 2.5 mg/kg): 801 ng/mL | Tmax ([5]; male, Sprague Dawley Crl:CD (SD), rat, plasma, intravenous, 2.5 mg/kg, males): 2 min | rebound after neutropenia at day 14 [6]: substantial rebound at day 14 | neutropenia (FIG. 6), day 7 in particular [6]: dip in values

Nc1ccn([C@@H]2O[C@H](CO)[C@@H](O)C2(F)F)c(=O)n1 [Gemcitabine, reference compound]
Tumour Growth inhibition (%) [7]: 40% | anti-tumour efficacy (mean tumour volume, FIG. 7) [7]: Neither Gemcitabine or ABRAXANE® were effective in this model

BHALys[Lys]32[α-DGA-Cabazitaxel]32†[ε-PEG˜2100]32‡ [SPL9048]
antitumour efficacy (mean tumour volume, FIG. 1) (DU145 tumour xenografts; 9 mg/kg i.v. Days 1, 8 and 15, to Day 126): complete tumour regression with no regrowth observed in any of the animals on Day 126 | tolerability (body weight, FIG. 2) (DU145 tumour xenografts; male mice, 9 mg/kg i.v. Days 1, 8, 15, 9 mg/kg): overall well tolerated; also recorded: better tolerated than SPL9005 | max weight loss (DU145 tumour xenografts; male mice, 9 mg/kg, on Day 20): −10% | stability in solution (e.g. with regard to precipitation) [8]: increased stability in solution | tolerability (body weight, FIG. 4) ([2]; 9 and 10 mg/kg): overall well tolerated | antitumour efficacy (mean tumour volume, FIG. 3) ([2]; 9 and 10 mg/kg i.v. days 1, 8 and 15): complete tumour regression | survival ([2]; both doses (9 and 10 mg/kg)): significantly extended survival beyond that of Cabazitaxel | toxicity overall [3]: Reduced toxicity | Tumour Growth inhibition (%) [7]: 107% | tumour growth inhibition compared with ABRAXANE ([7]; […] i.v. vs 40 mg/kg i.v.): more effectively than ABRAXANE® | anti-tumour efficacy (mean tumour volume, FIG. 7) [7]: complete regression of CAPAN-1 tumours for the duration of the study | dose at which biomarker response occurs ([9]; FIGS. 8 and 9): ≥ 10 mg/m^2 | CA-125 (FIG. 9) ([9]; ovarian cancer, after two doses at 15 mg/m^2): declining | Stable disease ([9]; patient: digital papillary adenocarcinoma (stage IV), 2 to 15 mg/m^2, 12 cycles): Stable disease > 33 weeks. | CA-125 decline ([9]; patient: ovarian (stage IV), 15 to 20 mg/m^2, 7 cycles, over 15 weeks): CA-125 declining (60%) from 652 | CA-125 after decline ([9]; patient: ovarian (stage IV), from 652, over 15 weeks, after one cycle at 15 mg/m^2): to 255 kU/L (over 15 weeks) after | CA 19-9 decline ([9]; patient: pancreatic adenocarcinoma (stage IV), 20 mg/m^2, 3 cycles, after one cycle): CA 19-9 declining (28%) from 177 | CA 19-9 after decline ([9]; patient: pancreatic adenocarcinoma (stage IV), 20 mg/m^2, from 177 baseline, after one cycle): baseline to 127 kU/L after one | CA 19-9 ([9]; patient: pancreatic adenocarcinoma, 20 mg/m^2, 1 cycle): Stable CA 19-9, abdominal pain | abdominal pain and opioid treatment ([9]; patient: pancreatic adenocarcinoma, 20 mg/m^2, after one cycle): subsided and cessation of opioid | Stable disease ([9]; patient: prostate (stage III), 5 to 20 mg/m^2, 13 cycles): Stable disease > 35 weeks. | PSA after decline ([9]; patient: prostate (stage III), 5 to 20 mg/m^2, declined from 106 over 12 weeks): PSA declined from 106 to 25 μg/L | Stable disease ([9]; patient: prostate, 20 mg/m^2, 5 cycles): Stable disease > 6 weeks | PSA after decline ([9]; patient: prostate, 20 mg/m^2, 5 cycles, from 262, in 3 weeks after three cycles): 86 μg/L (in 3 weeks) after three | PSA stability ([9]; patient: prostate, 5 cycles, at 5 mg/m^2): Preliminary signs of PSA stability | PSA (FIG. 8) ([9]; prostate cancer patients, multiple doses at 10 mg/m^2, continuing at 20 mg/m^2): declining | AUC0-t free Cabazitaxel ([5]; 1 mg/kg drug eq., males): 445.00 ng·h/mL | Cmax free (unconjugated) Cabazitaxel ([5]; 1 mg/kg drug eq., males): 14.13 ng/mL | % JEVTANA ® brand cabazitaxel dose ([5]; 1 mg/kg drug eq., males): 65% | AUC0-t free Cabazitaxel ([5]; 2.5 mg/kg drug eq., males): 1239.99 ng·h/mL | Cmax free (unconjugated) Cabazitaxel ([5]; 2.5 mg/kg drug eq., males): 36.89 ng/mL | % JEVTANA ® brand cabazitaxel dose ([5]; 2.5 mg/kg drug eq., males): 182% | rebound after neutropenia at day 14 [6]: virtually no rebound | neutropenia (FIG. 6), day 7 in particular [6]: lesser/no dip in values

BHALys[Lys]32[α-TDA-Cabazitaxel]32 †[ε-PEG˜2100]32‡ [SPL9005]
male mice recovered to +5/10% starting weight (DU145 tumour xenografts; 25 mg/kg, after day 40): 2/10 | male mice with >20% weight loss (DU145 tumour xenografts; 25 mg/kg, after third dose, approx. day 25): 8/10 | AUC0-t free Cabazitaxel ([5]; 1 mg/kg drug eq., males): 202.94 ng·h/mL | Cmax free (unconjugated) Cabazitaxel ([5]; 1 mg/kg drug eq., males): 4.41 ng/mL | % JEVTANA ® brand cabazitaxel dose ([5]; 1 mg/kg drug eq., males): 30% | AUC0-t free Cabazitaxel ([5]; 2.5 mg/kg drug eq., males): 548.96 ng·h/mL | Cmax free (unconjugated) Cabazitaxel ([5]; 2.5 mg/kg drug eq., males): 9.29 ng/mL | % JEVTANA ® brand cabazitaxel dose ([5]; 2.5 mg/kg drug eq., males): 81% | mean weight loss [10]: below 10%
